The subject of one assay is LRI-1 promoter. Nature of the assay: GUS histochemical staining of LRI-1 promoter trap seedlings grown with hormones or hormone signalling inhibitors. It is filed as in vivo, Arabidopsis thaliana. As to the method: (§1) The expression of the GUS promoter trap was analysed over a developmental time course in uninfected Arabidopsis seedlings that had been grown aseptically on a synthetic growth medium. Prior to analysis, seeds of the transgenic line were surface sterilised by treatment with 70% (v/v) ethanol for 3 minutes and 10% (v/v) commercial bleach for 20 minutes. The seeds were then washed with water and grown on half-strength Murashige and Skoog medium (½MS), supplemented with 10 g/l sucrose. The seedlings were grown in the presence of continuous light at 25° C. Tissue localisation of the GUS enzyme activity was determined at intervals after germination by staining for up to 12 hours at 37° C. in 1 mM 5-bromo-4-chloro-3-indoyl-β-D-glucuronic acid (X-gluc), according to the method of Jefferson et al (1987, EMBO J. 6, 3901-3907), wherein the method was modified by the use of buffer comprising 100 mM sodium phosphate (pH 7.0), 10 mM EDTA, 0.1% (v/v) Triton X-100 and 1 mM potassium ferricyanide to inhibit diffusion of the reaction intermediate. This solution was known as GUS buffer. Excess chlorophyll was removed by soaking the stained tissues in 70% (v/v) ethanol.
(§2) In order to investigate the regulation of the LRI-1 promoter activity, seeds that were homozygous for the LRI-1 gene fusion were germinated aseptically on ½MS10 medium in the presence or absence of hormones. At 9 dpg, the seedlings were subsequently transferred to ½MS10 medium containing either hormones or inhibitors of hormone signalling. Hormone treatments used for the purposes of this invention included, but were not limited to: 0.25, 2.5 or 10 μM 1-naphthaleneacetic acid (NAA, a synthetic auxin); 0.25, 2.5 or 10 μM kinetin (a synthetic cytokinin); 10 or 100 μM silver nitrate (an inhibitor of ethylene signalling); 10 or 100 μM 1-aminocyclopropane-1-carboxylic acid (ACC, a precursor of ethylene); 10 or 100 μM naphthylphthalamic acid (NPA) or 10 μM triiodobenozoic acid (TIBA). NPA and TIBA are inhibitors of polar auxin transport. After growth on medium in the presence or absence of hormones, the seedlings were transferred to a solution of GUS buffer and analysed for GUS activity (indicated by the presence of a blue precipitate).

Assay [1] deals with Arabidopsis thaliana seedlings. Nature of the assay: Root development of LRI-1 seedlings grown with hormones or hormone signalling inhibitors. The assay is classed as in vivo. As to the method:
as §1, §2

Another assay relates to AtPRB2 promoter. Kind of assay: GUS activity of 2.47 kb AtPRB2 promoter fragment::GUS transgenic seedlings treated with exogenous auxin. It is filed as in vivo, Arabidopsis thaliana. Particulars: 9 dpg on ½MS10, then 2.5 μM for a further 1, 3 or 5 days; except at the root tips. From the text: To confirm that the 5′ flanking sequence upstream of the left T-DNA was responsible for the observed GUS activity in line LRI-1, the sequence was cloned and fused to each of the gusA and the GFP reporter genes respectively. The technique of PCR was used to amplify a 1.47 kb genomic fragment immediately upstream of the left T-DNA border. This 1.47 kb fragment was cloned upstream of the respective reporter genes and subsequently introduced into Arabidopsis thaliana plants by the dipping method of Agrobacterium tumefaciens-mediated transformation (Clough and Bent 1998 Plant J. 16, 735-743). In order to determine whether the promoter activity of the cloned sequence pLRI-1 was similar to the promoter region upstream of gene AtPRB2, a 2.47 kb fragment immediately upstream of the gene was cloned. In addition, shorter fragments which were 1 kb, 0.5 kb and 0.2 kb upstream of AtPRB2 were cloned and fused to the gusA reporter gene in the binary vector pΔGUSCIRCE (Casson et al, 2002 Plant Cell 14, 1705-1721), before introduction into plants by Agrobacterium-mediated transformation.
Using a similar approach, the activity of the 2.47 kb AtPRB2 gene fragment was determined in transgenic Arabidopsis lines. […]

Where [2] appears, read: 9 days without compound, then 10 μM for a further 2 days.
[3] abbreviates: grown on 2.5 μM or 10 μM for up to 9 days.
Setting [4] is: transferred to compound after growth on hormone-free medium, higher concentrations.

Molecules are shown by their SMILES.

On to `O=C(O)c1cc(I)cc(I)c1I` [TIBA, triiodobenozoic acid], for which the “existing GUS activity at previously formed lateral roots” value in the assay with LRI-1 promoter (setting [2]) is listed as “remained unaffected”. Besides, the GUS activity result in the assay on LRI-1 promoter (grown 5 dpg in presence of 10 μM, some seedlings, at sites where lateral roots would normally emerge) is “localised but low level GUS activity”. In addition, the “new lateral root formation” value in assay [1] (setting [2]) is listed as “inhibition of new lateral root formation”. Besides, the lateral root development entry in assay [1] (germinated and grown 5 dpg in presence of 10 μM) is on record as “No lateral root development was observed”.
`O=C(O)Cc1cccc2ccccc12` [NAA, 1-naphthaleneacetic acid]: in the assay with LRI-1 promoter (9 dpg on ½MS10, then transfer to 0.25, 2.5 or 10 μM NAA for 1, 3 or 5 days, except at the root tip), the “GUS activity in root” value is listed as “strong GUS activity throughout the root”. For the same compound, the “GUS activity in aerial parts” value with LRI-1 promoter (after transfer at 9 dpg, two lower concentrations of NAA tested) is reported as “No GUS activity was detected”. The GUS activity entry in the assay on LRI-1 promoter (seedlings germinated on ½MS10 in presence of NAA (0.25, 2.5 or 10 μM), most prominent at 10 μM) is recorded as “strong throughout the root of the seedling”. The “LRI-1::GUS expression” value in the assay with LRI-1 promoter (seedlings treated with 2.5 μM exogenous auxin) was “induction of LRI-1::GUS expression throughout the Arabidopsis root”. Besides, the adventitious root development entry in assay [1] (after transfer at 9 dpg, 2.5 μM NAA) is “developed adventitious roots on the hypocotyl”; in assay [1] (grown for 9 dpg in presence of auxin, roots GUS-positive) it was “adventitious roots developed from the shortened hypocotyl”. Moreover, the root elongation entry in assay [1] (seedlings germinated on ½MS10 in presence of NAA, most prominent at 10 μM) is reported as “dramatic reduction in root elongation”. For the same compound, in the assay on AtPRB2 promoter, the “AtPRB2::GUS activity” value is recorded as “strong induction of AtPRB2::GUS activity throughout the root”.
On to `NC1(C(=O)O)CC1` [ACC, 1-aminocyclopropane-1-carboxylic acid], for which, in the assay on LRI-1 promoter (germinated and grown in presence of 10 μM for up to 9 dpg), the “level of GUS activity” value is reported as “reduction in the level of GUS activity”. In addition, the GUS activity entry with LRI-1 promoter (grown in presence of 100 μM, stronger expression at the base of lateral roots) is listed as “induction of GUS activity in the hypocotyl”.
Regarding `c1coc(CNc2ncnc3[nH]cnc23)c1` [kinetin], the figures for the GUS activity result in the assay on LRI-1 promoter (setting [3]) and with LRI-1 promoter (setting [4]) were “detected as normal” and “detectable as normal”, respectively. Further, the lateral root formation entry in assay [1] (setting [3]) was “no lateral root formation was observed”; in assay [1] (setting [4]), “reduction in lateral root formation”.
On to `O=[N+]([O-])[O-].[Ag+]` [silver nitrate], for which the “GUS activity associated with the LRI-1 promoter” value with LRI-1 promoter (germination and growth for 3, 5 or 9 days in presence of 10 μM) is on record as “reduction in GUS activity”.

These data come from patent US20090144853A1, “Control of Gene Expression in Plants” (UNIVERSITY OF DURHAM, priority 2005, published 2009).
